Test results: the supplement of paper PMC8967900

Key:
Assay in all cases: selective drug sensitivity score (sDSS, relative to normal bone marrow) (sDSS (score)); higher = more potent and effective on the cell line relative to normal bone marrow cells
Conditions in all cases: 72 h
COG-LL-317 = tested on: COG-LL-317
NALM-16 = tested on: NALM-16
SUP-B15 = tested on: SUP-B15
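Also: ALL cell lines in 384-well plates, five doses spanning 10,000-fold, each plate scaled between vehicle and 100 µmol/L benzalkonium chloride controls, sDSS an adapted area-under-curve metric.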

Compound	selective drug sensitivity score (COG-LL-317)	selective drug sensitivity score (NALM-16)	selective drug sensitivity score (SUP-B15)
CCn1cc(-c2ccnc3[nH]c(-c4cccc(CN(C)C)c4)cc23)c(-c2ccc(NC(=O)N(C)C)cc2)n1 (top concentration 1000 nM)	18.7	-1.84	23.9
CC(C)(C)C[C@@H]1N[C@@H](C(=O)N[C@H]2CC[C@H](O)CC2)[C@H](c2cccc(Cl)c2F)[C@]12C(=O)Nc1cc(Cl)ccc12 (top concentration 10000 nM)	19.9	-3.54	20.4
Cc1c(Cn2c(C)nc3c(C(=O)O)cc(N4CCOCC4)cc32)cccc1C(F)(F)F (top concentration 10000 nM)	2.28	-0.02	0.38
Nc1ncnc2c1c(COc1cccc(Cl)c1)nn2C1CCOCC1 (top concentration 10000 nM)	-0.64	-0.64	0.16
Cn1cc(C[C@@H](N)C(=O)O)c2ccccc21 [1-methyl-D-tryptophan] (top concentration 5000 nM)	-0.62	-0.62	-0.62
COc1cc2c(cc1OCCCN1CCCC1)N=C(N)C21CCC1 [A-366] (top concentration 25000 nM)	3.06	-1.84	-1.14
COCCOc1cnc2ccn([C@H](C)c3nnc4c(F)cc(-c5cnn(C)c5)cn34)c(=O)c2c1 [AMG-337] (top concentration 10000 nM)	-0.06	-0.06	-0.06
COc1cc(N2CCC(N3CCN(C)CC3)CC2)ccc1Nc1ncnc(Nc2ccccc2S(=O)(=O)C(C)C)n1 [ASP3026] (top concentration 10000 nM)	-1.44	-2.64	1.16
CN[C@@H](C)C(=O)N[C@H]1CN(C(=O)CC(C)C)CC[C@H]2CC[C@@H](C(=O)NC(c3ccccc3)c3ccccc3)N2C1=O [AT-406] (top concentration 10000 nM)	0.64	-1.26	-1.26
COc1cc2ncnc(Nc3cccc(Cl)c3F)c2cc1OC(=O)N1CCN(C)C[C@H]1C [AZD3759] (top concentration 1000 nM)	-0.04	-0.04	-0.04
C[C@]12CC[C@H](O)CC1=CC[C@@H]1[C@@H]2CC[C@]2(C)C(c3cccnc3)=CC[C@@H]12 [Abiraterone] (top concentration 5000 nM)	-0.12	-0.12	-0.02
CC#CC(=O)N1CCC[C@H]1c1nc(-c2ccc(C(=O)Nc3ccccn3)cc2)c2c(N)nccn12 [Acalabrutinib] (top concentration 1000 nM)	-0.1	-0.1	3.7
CCc1cc2c(cc1N1CCC(N3CCOCC3)CC1)C(C)(C)c1[nH]c3cc(C#N)ccc3c1C2=O [Alectinib] (top concentration 1000 nM)	5.48	-0.22	-0.22
Oc1ncnc2[nH]ncc12 [Allopurinol] (top concentration 10000 nM)	-0.64	-0.64	0.36
COc1cc(NS(C)(=O)=O)ccc1Nc1c2ccccc2nc2ccccc12 [Amsacrine] (top concentration 10000 nM)	25.8	0.66	23.6
O=C1CN2Cc3c(ccc(Cl)c3Cl)N=C2N1 [Anagrelide] (top concentration 10000 nM)	0	0	0
N#CC(c1ccnc(OCc2ccc(CN3CCOCC3)cc2)n1)c1nc2ccccc2s1 (stereo unspecified) [Bentamapimod] (top concentration 10000 nM)	3.34	-0.46	2.34
CCNC(=O)CCC/C=C\C[C@@H]1[C@@H](/C=C/[C@@H](O)CCc2ccccc2)[C@H](O)C[C@@H]1O [Bimatoprost] (top concentration 5500 nM)	0	0	0
COc1cc(C)[nH]c(=O)c1CNC(=O)c1c(C)n([C@H](C)C2CCOCC2)c2ccccc12 [CPI-360] (top concentration 10000 nM)	0	0	0
CNC(=O)c1ccc(-c2cnc3ncc(Cc4ccc5ncccc5c4)n3n2)cc1F [Capmatinib] (top concentration 1000 nM)	0.34	-0.06	-0.06
COc1cc2c(Oc3ccc4[nH]c(C)cc4c3F)ncnc2cc1OCCCN1CCCC1 [Cediranib] (top concentration 1000 nM)	0.1	0	0

Compound	selective drug sensitivity score (COG-LL-317)	selective drug sensitivity score (NALM-16)	selective drug sensitivity score (SUP-B15)
CCN(CC)CCCC(C)Nc1ccnc2cc(Cl)ccc12 (stereo unspecified) [Chloroquine] (top concentration 100000 nM)	0.36	-5.24	-4.14
C[C@@H](Oc1cc(-c2cnn(C3CCNCC3)c2)cnc1N)c1c(Cl)ccc(F)c1Cl [Crizotinib] (top concentration 1000 nM)	-0.54	-0.54	3.86
COc1cc2ncnc(Nc3ccc(F)c(Cl)c3)c2cc1NC(=O)/C=C/CN1CCCCC1 [Dacomitinib] (top concentration 1000 nM)	-0.44	-1.54	-1.34
CCN(CC)CCN(Cc1ccc(-c2ccc(C(F)(F)F)cc2)cc1)C(=O)Cn1c(SCc2ccc(F)cc2)nc(=O)c2c1CCC2 [Darapladib] (top concentration 1000 nM)	-1.42	-0.52	-1.42
C[C@@H]1C[C@H]2[C@@H]3CCC4=CC(=O)C=C[C@]4(C)[C@@]3(F)[C@@H](O)C[C@]2(C)[C@@]1(O)C(=O)CO [Dexamethasone] (top concentration 10000 nM)	11.3	-1.52	43
Cc1cc(C)c(CNC(=O)c2cc(-c3ccc(CN4CCOCC4)cc3)cc3c2cnn3C2CCCC2)c(=O)[nH]1 [EPZ-5687] (top concentration 10000 nM)	-0.36	-0.36	-0.36
C=C1C[C@@H]2CC[C@@]34C[C@H]5O[C@H]6[C@@H](O3)[C@H]3O[C@H](CC[C@@H]3O[C@H]6[C@H]5O4)CC(=O)C[C@@H]3[C@@H](OC)[C@@H](C[C@H](O)CN)O[C@H]3C[C@H]3O[C@@H](CC[C@@H]1O2)C[C@@H](C)C3=C [Eribulin] (top concentration 1000 nM)	26.3	17.1	25.7
O=c1[nH]cc(F)c(=O)[nH]1 [Fluorouracil] (top concentration 10000 nM)	8.26	-0.24	3.46
CC(C)C(=O)Nc1ccc([N+](=O)[O-])c(C(F)(F)F)c1 [Flutamide] (top concentration 10000 nM)	-0.56	-0.56	-0.56
C[C@]12CC[C@@H]3c4ccc(O)cc4C[C@@H](CCCCCCCCC[S+]([O-])CCCC(F)(F)C(F)(F)F)[C@H]3[C@@H]1CC[C@@H]2O (stereo partly specified) [Fulvestrant] (top concentration 1000 nM)	0	0	0
CCCOc1ccn2c(C(C)=O)cc(-c3ccccc3S(C)(=O)=O)c2c1 [GSK2801] (top concentration 10000 nM)	0.84	-0.36	-0.36
Cc1cccc(-c2nn3c(c2-c2ccnc4ccc(C(N)=O)cc24)CCC3)n1 [Galunisertib] (top concentration 1000 nM)	0	0	0
O=C(O)CNC(=O)c1c(O)c2ccccc2n(Cc2ccccc2)c1=O [IOX-2] (top concentration 50000 nM)	-0.82	-0.62	-0.82
C#Cc1cccc(Nc2ncnc3cc4c(cc23)OCCOCCOCCO4)c1 [Icotinib] (top concentration 10000 nM)	0	0	1.2
CC(C)Cn1cnc2c(N)nc3ccccc3c21 [Imiquimod] (top concentration 2500 nM)	0	0	0.3
N#Cc1ccnc(N2C(=O)CC[C@H]2C(=O)N(c2cncc(F)c2)[C@H](C(=O)NC2CC(F)(F)C2)c2ccccc2Cl)c1 [Ivosidenib] (top concentration 10000 nM)	1.8	0	0
C/C(=C\c1csc(C)n1)[C@@H]1C[C@@H]2O[C@]2(C)CCC[C@H](C)[C@H](O)[C@@H](C)C(=O)C(C)(C)[C@@H](O)CC(=O)N1 [Ixabepilone] (top concentration 1000 nM)	2.98	2.88	5.08
Nc1cc(COc2c(Cl)cc(C[C@H](N)C(=O)O)cc2Cl)c2oc(-c3ccccc3)nc2c1 [JPH203] (top concentration 5000 nM)	0	0	0
CS(=O)(=O)CCNCc1ccc(-c2ccc3ncnc(Nc4ccc(OCc5cccc(F)c5)c(Cl)c4)c3c2)o1 [Lapatinib] (top concentration 1000 nM)	0	0	0
Oc1ccc2c(c1)CC[C@H](c1ccccc1)[C@@H]2c1ccc(OCCN2CCCC2)cc1 [Lasofoxifene] (top concentration 1000 nM)	-1.28	-1.28	-1.28
Cc1ccc(F)c(NC(=O)Nc2ccc(-c3cccc4[nH]nc(N)c34)cc2)c1 [Linifanib] (top concentration 1000 nM)	-1.12	-1.12	-1.12
